Measurements from patent US20070087330A1, “Viral deconstruction through capsid assembly in vitro” (priority 2002, published 2007).

Assays:
[1] = tested on: HIV capsid assembly (Gag Pr55); experiment: Cell-free HIV capsid assembly in wheat germ extract, analysed by velocity sedimentation; assay type: biochemical
Method: Translation of the transcription products was carried out in wheat germ extract containing ^35S methionine (ICN Pharmaceuticals, Costa Mesa, Calif.). Wheat germ was obtained from General Mills. Wheat germ extract was prepared as described by Erickson and Blobel (1983) supra with indicated modifications. Three grams of wheat germ were placed in a mortar and ground in 10 ml homogenization buffer (100 mM K-acetate, 1 mM Mg-acetate, 2 mM CaC12, 40 mM HEPES buffer, pH 7.5 (Sigma Chemicals, St. Louis, Mo.), 4 mM dithiothreitol) to a thick paste. The homogenate was scraped into a chilled centrifuge tube and centrifuged at 4° C. for 10 min at 23,000×g. The resulting supernatant was centrifuged again under these conditions to provide an S23 wheat germ extract. Improved assembly was obtained when the S23 wheat germ extract was further subjected to ultracentrifugation at 50,000 rpm in the TLA 100 rotor (100,000×g) (Beckman Instruments, Palo Alto, Calif.) for 15 min at 4° C. and the supernatant used for in vitro translation. […] This supernatant is referred to herein as a “high speed wheat germ extract supernatant”. Reactions were performed as previously described (Lingappa, J. R., et al., J. Cell. Biol. (1984) 125:99-111), except for modifications noted below.
A 25 μl wheat germ transcription/translation reaction mixture contained: 5 μl Gag transcript, 5 μl ^35—S Energy Mix 5× stock (Sigma Chemical Co., St. Louis, Mo.), 2.5 μl Compensating Buffer (Sigma Chemical Co.), 1.0 μl 40 mM MgAcetate (Sigma Chemical Co.), 2.0 μl 125 μM Myristoyl CoA (made up in 20 mM Tris Acetate, pH 7.6; Sigma Chemical Co.), 3.75 μl 20 mM Tris Acetate buffer, […] (U.S. Biochemicals; Cleveland, Ohio), 0.25 μl creatine kinase (4 mg/ml stock in 50% glycerol, 10 mM Tris Acetate; Boehringer Mannheim, Indianapolis, Ind.), 0.25 μl bovine tRNA (10 mg/ml stock; Sigma Chemical Co.), and 0.25 μl RNAse Inhibitor (20 units/50; Promega). […]
The purpose of this experiment was to use the cell-free system for detecting HIV assembly intermediates that would be otherwise difficult or impossible to detect. A continuously labeled cell-free reaction was analyzed by velocity sedimentation. […] Upon completion of the cell-free reaction, the products were diluted into 1% NP40 sample buffer on ice, and were analyzed by velocity sedimentation on 13 ml 15-60% sucrose gradients. Fractions were collected from the top of each gradient, and the amount of radiolabeled Pr55 protein in each fraction was determined and expressed as percent of total Pr55 protein present in the reaction. The calculated positions of 10S, 80S, 150S, 500S, and 750S complexes are indicated with markers above the figures (see FIG. 3A). […]

[2] = tested on: HBV core polypeptides / HBV capsids; assay type: biochemical
HBV core polypeptides / HBV capsids, sequence (P03146 whole entry): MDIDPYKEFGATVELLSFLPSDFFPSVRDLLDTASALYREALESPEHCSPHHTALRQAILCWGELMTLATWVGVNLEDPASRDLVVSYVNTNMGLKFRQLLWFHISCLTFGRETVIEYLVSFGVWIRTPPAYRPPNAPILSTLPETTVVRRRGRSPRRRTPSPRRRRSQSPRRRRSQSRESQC
Method: Following translation of HBV core transcript for 30 min, the translation product was diluted in 0.01% Nil(kol buffer and centrifuged on a 10-50% sucrose gradient. The supernatant was removed and the pellet was resuspended in buffer and divided into equal aliquots. To one aliquots was added apyrase (A, top) while the control was incubated in buffe alone (A, bottom). Incubations were done at 25° C. for 90 min. Reaction mixtures were then centrifuged on standard 10-50% sucrose gradients. Fractions were analyzed by SDS-PAGE and autoradiography. In a separate experiment (B) the pellet was isolated and resuspended in identical fashion. To one aliquot was added wheat germ extract as well as unlabeled energy mix. (B, top); to the second aliquot was added wheat germ extract and apyrase (B, botton).
To address this, pellet material was isolated by fractionating the products of a 30-min translation of HBV core on a sucrose gradient and resuspending the pellet in buffer. The resuspended pellet was divided into equal aliquots and treated either with aphyase or with buffer for 90 min at 24° C.
Treatment of the isolated pellet with apyrase and wheat germ extract (FIG. 23B, bottom).

apyrase
A (material in fractions of assembly intermediate complex A) ([1]; radiolabeled Pr55 in 10S complex A, apyrase added post-translationally, detergent cotranslationally): 2851 | B/C (material in fractions of assembly intermediate complexes B and C) ([1]; radiolabeled Pr55 in 80S/150S complexes B and C, apyrase added post-translationally, detergent cotranslationally): 5999 | Final Capsid (material in fractions of the completed capsid) ([1]; radiolabeled Pr55 in 750S completed capsid position, apyrase added post-translationally, detergent cotranslationally): 133 | Effect of treatment on assembly intermediates ([1]; velocity sedimentation, compared with the untreated reaction): accumulation of additional material in complexes B and C | Effect of treating the isolated pellet material ([2]; pellet of a 30-min translation, 90 min at 24° C.): release of completed capsids from the pellet

CC[C@H]1CN2CCc3cc(OC)c(OC)cc3[C@@H]2C[C@@H]1C[C@H]1NCCc2cc(OC)c(OC)cc21 [emetine]
Effect on results of treating the isolated pellet with energy substrates or apyrase ([2]; protein synthesis inhibitor added): did not affect

O=C(O)CN(CCN(CC(=O)O)CC(=O)O)CC(=O)O [EDTA]
Effect on relative distribution of labeled core polypeptides in top, middle and pellet regions ([2]; 10 mM, translation products treated): had no effect
